The test system of test [1] is C. difficile strain NC13366. Type of test: cell-based.
Test [2] concerns 209 diverse clinical isolates of C. difficile. Briefly: MIC, CLSI agar dilution, clinical isolates. The test is classed as cell-based, Clostridium difficile. Particulars: Clostridioides difficile, 209 clinical isolates of C. difficile. (In general: Agar dilution tests growth on a series of plates holding different concentrations.)
A further test concerns S. aureus A798. Briefly: MIC, broth microdilution (NCCLS). Particulars: for MIC: Staphylococcus aureus. Type of test: cell-based. On the procedure:
These assays have been performed following the description given in “Methods for dilution Antimicrobial Susceptibility Tests for Bacteria that Grow Aerobically, 4th ed.; Approved standard: NCCLS Document M7-A4; National Committee for Clinical Laboratory Standards Villanova, Pa., USA, 1997”. Minimal inhibitory concentrations (MICs; mg/l) were determined in cation-adjusted Mueller-Hinton Broth (BBL) by a microdilution method following NCCLS guidelines (National Committee for Clinical Laboratory Standards. Methods for Dilution Antimicrobial Susceptibility). The pH1 of the test medium was 7.2-7.3. In the particular case wherein the compound to be tested is a compound of formula IPDc wherein at least one of R^1 and R^2 represents OPO3H2, then the test was carried out in the presence of human alkaline phosphatase (concentration: 1 U/mL). In the particular case wherein the compound to be tested is a compound of formula IPDG wherein R^1 represents a group OCOR^5, then the test may be carried out in the presence of 50% human serum.

A further test deals with M. catarrhalis A894. Briefly: MIC, broth microdilution (NCCLS). Type of test: cell-based. (In general: In broth dilution the organism is exposed to a series of concentrations in liquid medium.)
The next test deals with S. Pneumoniae 49619. Briefly: MIC, broth microdilution (NCCLS). Type of test: cell-based. The method, then:
(§1) These assays have been performed following the description given in “Methods for dilution Antimicrobial Susceptibility Tests for Bacteria that Grow Aerobically, 4th ed.; Approved standard: NCCLS Document M7-A4; National Committee for Clinical Laboratory Standards Villanova, Pa., USA, 1997”. Minimal inhibitory concentrations (MICs; mg/l) were determined in cation-adjusted Mueller-Hinton Broth (BBL) by a microdilution method following NCCLS guidelines (National Committee for Clinical Laboratory Standards. Methods for Dilution Antimicrobial Susceptibility). The pH1 of the test medium was 7.2-7.3.

A further test has as its system C. difficile ATCC 9689. Briefly: MIC, anaerobic broth microdilution, reference strains. The settings on record: Clostridioides difficile, ATCC9689, 48 h, read-out: MIC regarding C. difficile ATCC 9689. Type of test: cell-based, Clostridium difficile.
Another test has as its system C. difficile NC 13366. The description is as above. The test is classed as cell-based, Clostridium difficile. The settings on record: Clostridioides difficile, NC13366, 48 h, read-out: MIC regarding C. difficile NC 13366.
Another test concerns C. perfringens DSM 756. The experiment in a line: microbe, parasite or virus in culture. Type of test: cell-based. Particulars: Clostridium perfringens, DSM756, 48 h, read-out: MIC regarding C. perfringens DSM 756.
The test system of a further test is C. difficile ATCC 43596. The experiment in a line: MIC, anaerobic broth microdilution, reference strains. Particulars: Clostridioides difficile, ATCC43596, 48 h, read-out: MIC regarding C. difficile ATCC 43596. The test is classed as cell-based, Clostridium difficile.
For a further test, the system named is E. faecalis 29212. The experiment in a line: MIC, broth microdilution (NCCLS). The test is classed as cell-based. The settings on record: Enterococcus faecalis, read-out: MIC against E. faecalis 29212. On the procedure:
as §1

Setting [3] is: A798, in the presence of human alkaline phosphatase (1 U/mL), read-out: MIC against S. aureus A798.
The mark [4] stands for this setting: A798, phosphatase absent, read-out: MIC against S. aureus A798.
Setting [5] is: A798, in the absence of human serum, read-out: MIC against S. aureus A798.
The mark [6] stands for this setting: A798, read-out: MIC S. aureus A798.

Structures are written as SMILES. ≈ marks a conversion by molar mass, not a printed value. Read-outs that look alike come from different tables or passages of the source.

In the case of `Cc1ncc([N+](=O)[O-])n1CCO` [metronidazole], the “de novo toxin A production in supernatants” value in [1] (1 and 8 μg/mL, day 5 vs day 1, high density stationary phase cultures) was “did not inhibit toxin A production under these conditions or did so only weakly”. The compound further yielded an MIC90 in test [2] of 1 µg/mL (≈ 5.84 µM).
Regarding `O=C(O)c1cn(C2CC2)c2cc(N3CCC(COc4ccc(N5C[C@H](CO)OC5=O)cc4F)(OP(=O)(O)O)CC3)c(F)cc2c1=O` [Example 10, 1-cyclopropyl-6-fluoro-7-{4-[2-fluoro-4-((R)-5-hydroxymethyl-2-oxo-oxazolidin-3-yl)-phenoxymethyl]-4-phosphonooxy-piperidin-1-yl}-4-oxo-1,4-dihydro-quinoline-3-carboxylic acid], the MIC was found to be 0.5 µg/mL with S. aureus A798 (setting [3]) and 16 µg/mL (≈ 24 µM) in the test with S. aureus A798 (setting [4]).
As for `CN[C@H](CC(C)C)C(=O)N[C@H]1C(=O)N[C@@H](CC(N)=O)C(=O)N[C@H]2C(=O)N[C@H]3C(=O)N[C@H](C(=O)N[C@H](C(=O)O)c4cc(O)cc(O)c4-c4cc3ccc4O)[C@H](O)c3ccc(c(Cl)c3)Oc3cc2cc(c3O[C@@H]2O[C@H](CO)[C@@H](O)[C@H](O)[C@H]2O[C@H]2C[C@](C)(N)[C@H](O)[C@H](C)O2)Oc2ccc(cc2Cl)[C@H]1O` [vancomycin], in test [1], the “de novo toxin A production in supernatants” value is “did not inhibit toxin A production under these conditions or did so only weakly”.
For `C[C@H](N)C(=O)OC[C@H]1CN(c2ccc(OCC3(O)CCN(c4cc5c(cc4F)c(=O)c(C(=O)O)cn5C4CC4)CC3)c(F)c2)C(=O)O1.Cl` [Example 4, 7-(4-{-4-[(R)-5-((S)-2-amino-propionyloxymethyl)-2-oxo-oxazolidin-3-yl]-2-fluoro-phenoxymethyl}-4-hydroxy-piperidin-1-yl)-1-cyclopropyl-6-fluoro-4-oxo-1,4-dihydro-quinoline-3-carboxylic acid hydrochloride], the MIC with S. aureus A798 (setting [5]) is 0.5 µg/mL.
Regarding `O=C(O)c1cn(C2CC2)c2cc(N3CCC(COc4ccc(N5C[C@H](CO)OC5=O)cc4F)C3)c(F)cc2c1=O` (mixture of isomers) [Example 8, 1-cyclopropyl-6-fluoro-7-{(RS)-3-[2-fluoro-4-((R)-5-hydroxymethyl-2-oxo-oxazolidin-3-yl)-phenoxymethyl]-pyrrolidin-1-yl}-4-oxo-1,4-dihydro-quinoline-3-carboxylic acid], in the test on S. aureus A798 (setting [6]), the MIC turned out to be 0.125 µg/mL.
In the case of `COc1c(N2CCC(O)(COc3ccc(N4C[C@H](CO)OC4=O)cc3F)C2)c(F)cc2c(=O)c(C(=O)O)cn(C3CC3)c12` (mixture of isomers) [Example 7, 1-cyclopropyl-6-fluoro-7-{(RS)-3-[2-fluoro-4-((R)—S-hydroxymethyl-2-oxo-oxazolidin-3-yl)-phenoxymethyl]-3-hydroxy-pyrrolidin-1-yl}-8-methoxy-4-oxo-1,4-dihydro-quinoline-3-carboxylic acid], the “MIC M. catarrhalis A894” value against M. catarrhalis A894 is 0.063 mg/L (≈ 0.105 µM). Besides, the “MIC S. aureus A798” value in the test with S. aureus A798 is 1 mg/L (≈ 1.66 µM). Moreover, the “MIC S. Pneumoniae 49619” value with S. Pneumoniae 49619 was 0.25 mg/L (≈ 0.416 µM).
Consider `O=C(O)c1cn(C2CC2)c2nc(N3CCC(O)(COc4ccc(N5C[C@H](CO)OC5=O)cc4F)CC3)c(F)cc2c1=O` [Example 3, 1-cyclopropyl-6-fluoro-7-[4-[2-fluoro-4-((R)-5-hydroxymethyl-2-oxo-oxazolidin-3-yl)-phenoxymethyl]-4-hydroxy-piperidin-1-yl]-4-oxo-1,4-dihydro-[1,8]naphthyridine-3-carboxylic acid], for which the MIC in the test with M. catarrhalis A894 (Moraxella catarrhalis, A894) came to 0.5 µg/mL (≈ 0.852 µM); with S. aureus A798 (setting [6]), 0.25 µg/mL (≈ 0.426 µM).
Regarding `O=C(O)c1c[nH]c2nc(N3CCC(O)(COc4ccc(N5C[C@H](CO)OC5=O)cc4F)CC3)c(F)cc2c1=O` [Example 14, 6-fluoro-7-{4-[2-fluoro-4-((R)-5-hydroxymethyl-2-oxo-oxazolidin-3-yl)-phenoxymethyl]-4-hydroxy-piperidin-1-yl}-4-oxo-1,4-dihydro-[1,8]naphthyridine-3-carboxylic acid], in the test with S. aureus A798 (setting [6]), the MIC amounted to 4 µg/mL (≈ 7.32 µM).
In the case of `C[C@H](N)C(=O)OC[C@H]1CN(c2ccc(OCC3CCN(c4cc5c(cc4F)c(=O)c(C(=O)O)cn5C4CC4)CC3)c(F)c2)C(=O)O1.Cl` [Example 12, 7-(4-{4-[(R)-5-((S)-2-amino-propionyloxymethyl)-2-oxo-oxazolidin-3-yl]-2-fluoro-phenoxymethyl}-piperidin-1-yl)-1-cyclopropyl-6-fluoro-4-oxo-1,4-dihydro-quinoline-3-carboxylic acid hydrochloride], the MIC with S. aureus A798 (setting [5]) was found to be 0.5 µg/mL.
As for `O=C(O)c1c[nH]c2cc(N3CCC(O)(COc4ccc(N5C[C@H](CO)OC5=O)cc4F)CC3)c(F)cc2c1=O` [Example 13, 6-fluoro-7-{4-[2-fluoro-4-((R)-5-hydroxymethyl-2-oxo-oxazolidin-3-yl)-phenoxymethyl]-4-hydroxy-piperidin-1-yl}-4-oxo-1,4-dihydro-quinoline-3-carboxylic acid], the MIC with S. aureus A798 (setting [6]) amounted to 2 µg/mL (≈ 3.67 µM).
On to `O=C(O)c1cn(C2CC2)c2cc(N3CCC(O)(COc4ccc(N5C[C@H](CO)OC5=O)cc4F)C3)c(F)cc2c1=O` (mixture of isomers) [Example 6, 1-cyclopropyl-6-fluoro-7-{(RS)-3-[2-fluoro-4-((R)-5-hydroxymethyl-2-oxo-oxazolidin-3-yl)-phenoxymethyl]-3-hydroxy-pyrrolidin-1-yl}-4-oxo-1,4-dihydro-quinoline-3-carboxylic acid], for which the MIC in the test on C. difficile ATCC 9689 came to 0.5 µg/mL; in the test on C. difficile NC 13366 it was 0.25 µg/mL; in the test with S. aureus A798 (setting [6]) it was 1 µg/mL; with C. perfringens DSM 756, 0.125 µg/mL; with C. difficile ATCC 43596, 0.25 µg/mL.
Consider `CCn1cc(C(=O)O)c(=O)c2cc(F)c(N3CCC(COc4ccc(N5C[C@H](CO)OC5=O)cc4F)CC3)cc21` [Example 11, 1-ethyl-6-fluoro-7-{4-[2-fluoro-4-((R)-5-hydroxymethyl-2-oxo-oxazolidin-3-yl)-phenoxymethyl]-piperidin-1-yl}-4-oxo-1,4-dihydro-quinoline-3-carboxylic acid], for which the MIC in the test with S. aureus A798 (setting [6]) is greater than 16 µg/mL; in the test with E. faecalis 29212, 8 µg/mL (≈ 14.3 µM).
On to `O=C(O)c1cn(C2CC2)c2cc(N3CCC(O)(COc4ccc(N5C[C@H](COP(=O)(O)O)OC5=O)cc4F)CC3)c(F)cc2c1=O` [Example 5, 1-cyclopropyl-6-fluoro-7-{4-[2-fluoro-4-((R)-2-oxo-5-phosphonooxymethyl-oxazolidin-3-yl)-phenoxymethyl]-4-hydroxy-piperidin-1-yl}-4-oxo-1,4-dihydro-quinoline-3-carboxylic acid], for which the MIC with S. aureus A798 (setting [3]) is 0.25 µg/mL; in the test with S. aureus A798 (setting [4]), greater than 16 µg/mL.
As to `COc1c(N2CCC(COc3ccc(N4C[C@H](CO)OC4=O)cc3F)C2)c(F)cc2c(=O)c(C(=O)O)cn(C3CC3)c12` (mixture of isomers) [Example 9, 1-cyclopropyl-6-fluoro-7-{(RS)-3-[2-fluoro-4-((R)-5-hydroxymethyl-2-oxo-oxazolidin-3-yl)-phenoxymethyl]-pyrrolidin-1-yl}-8-methoxy-4-oxo-1,4-dihydro-quinoline-3-carboxylic acid], the MIC in the test with S. aureus A798 (setting [6]) was 1 µg/mL.
Same read-out and setting: then `O=C(O)c1cn(C2CC2)c2cc(N3CCC(COc4ccc(N5C[C@H](CO)OC5=O)cc4F)CC3)c(F)cc2c1=O` [Example 2, 1-cyclopropyl-6-fluoro-7-{4-[2-fluoro-4-((R)-5-hydroxymethyl-2-oxo-oxazolidin-3-yl)-phenoxymethyl]-piperidin-1-yl}-4-oxo-1,4-dihydro-quinoline-3-carboxylic acid], with 0.25 µg/mL (≈ 0.439 µM).

As usually defined, the MIC90 is an inhibitory concentration at the 90% level, which refers to growth in some studies and to a panel of isolates in others. Read a high MIC90 as weaker potency.
